In EP3868759A1, “2,3,5-SUBSTITUTED PYRROLO[2,3-B]PYRIDINES AS ERBB MODULATORS USEFUL FOR TREATING CANCER” (PearlRiver Bio GmbH, priority 2020, dated 2021):
pIC50: −log10 of the molar value.

Columns and labels:
[1] = target: T1, HER2 INS YVMA (Homo sapiens, UniProt P04626, INS775YVMA); assay: Lance Kinase Activity Assay, Her2 Exon 20 InsYVMA; details: biochemical Lance assay
T1 construct: purchased DPF
Experimental: This protocol describes how the Lance Kinase Activity Assay was performed to determine IC50 values of compounds of general formula (I) against HER2 INS YVMA. The principle behind this enzymatic assay is based upon the phosphorylation of the Ulight-peptide substrate. It is detected by using a specific EU-labeled anti-phospho peptide antibody. The binding of the Eu labeled anti-phospho peptide antibody to the phosphorylated ULight labeled peptide gives rise to a FRET-signal. Binding of an inhibitor to the kinase prevents phosphorylation of the Ulight-substrate, resulting in a loss of FRET. In table 2 is summarized the relevant information for the LANCE assay. Table 2: Reagents, stock concentrations and final assay concentrations for Her2 INS YVMA.
The compounds of general formula (I) summarized in Table 3 were serial diluted from a 10 mM DMSO stock solution 1:3 over 8 steps in a total volume of 20 µl. For every sample, 8 µl of kinase-substrate mix was transferred into a suitable assay plate (e.g. Corning #3673). Compound was added via pintool transfer (10nl/well) using a Biomek FX robot (BeckmanCoulter). Reaction was started by addition of 2µl ATP working solution and mixed using variomag teleshaker (Thermo Fischer Scientific). After 1 h incubation at room temperature the reaction was stopped with 10µl detection mix containing the Eu-labeled phosphospecific antibody and 10mM EDTA. After a second incubation period of 1 h at room temperature the FRET signal was measured at 340 nm excitation, 665 nm and 615 nm emission (for the ULight-substrate and Eu-AB, respectively) with an Envision spectrophotometer (Perkin Elmer, Waltham, MA, USA) with 50 µs delay and 300 µs integration time. IC50 values were determined from the sigmoidal dose response curves with the software Quattro Workflow (Quattro GmbH, Munich, Germany).

[2] = tested on: EGFR Exon 20 InsNPH Ba/F3; assay: CellTiter-Glo cell viability, EGFR Exon 20 InsNPH Ba/F3; assay type: cell-based; details: Mus musculus, BaF3, 72 h, read-out: EGFR Exon 20 InsNPH Ba/F3 CTG IC50
Experimental: (§1) The CellTiter-Glo Luminescent Cell Viability Assay (Promega) is a homogeneous method of determining the number of viable cells in culture. It is based on quantification of ATP, indicating the presence of metabolically active cells. Cells are seeded on day 1 at cell numbers that assure assay linearity and optimal signal intensity. After incubation for 24h in humidified chambers at 37°C and 5% CO2, compounds in DMSO are added at different concentrations. Cells are further incubated for 72 h at 37°C and 5% CO2. Cells treated with the compound vehicle DMSO are used as positive controls and cells treated with 10 µM Staurosporine serve as negative controls. At day 5 the CellTiter Glo Reagent is prepared according to the instructions of the kit (Promega Inc.): Reagent is mixed 1:1 with cell culture medium. Thereon, mixture and assay plates are equilibrated at room temperature for 20 min. Equal volumes of the reagent-medium-mixture is added to the volume of culture medium present in each well. The plates are mixed at ∼200 rpm for 2 minutes on an orbital shaker. The microplates are then incubated at room temperature for 10 minutes for stabilization of the luminescent signal. Following incubation the luminescence is recorded on a Victor microplate reader (Perkin Elmer) using a 200 ms integration time. The data is then analyzed with Excel using the XLFIT Plugin (dose response Fit 205) for IC50-determination. As quality control the Z'-factor is calculated from 16 positive and negative control values. Only assay results showing a Z'-factor ≥ 0.5 are used for further analysis.

[3] = tested on: Her2 Exon 20 InsYVMA Ba/F3; assay: CellTiter-Glo cell viability, Her2 Exon 20 InsYVMA Ba/F3; assay type: cell-based; details: Mus musculus, BaF3, 72 h, read-out: Her2 Exon 20 InsYVMA Ba/F3 CTG IC50
Experimental: as §1

[4] = tested on: Cuto-17; assay: CellTiter-Glo cell viability, Cuto-17; assay type: cell-based; details: CUTO17, 72 h, read-out: Cuto-17 CTG IC50
Experimental: as §1

[5] = target: EGFR T790M L858R (Homo sapiens, UniProt P00533, L858R/T790M); assay: Lance assay, EGFR T790M L858R; details: biochemical Lance assay
[6] = target: EGFR wt (Homo sapiens, UniProt P00533); assay: Lance assay, EGFR wt; details: biochemical Lance assay
[7] = tested on: H1975; assay: CellTiter-Glo cell viability, H1975; assay type: cell-based; details: Homo sapiens, NCI-H1975, 72 h, read-out: H1975 CTG IC50
Experimental: as §1

[8] = tested on: A431; assay: CellTiter-Glo cell viability, A431; assay type: cell-based; details: Homo sapiens, A-431, 72 h, read-out: A431 CTG IC50
Experimental: as §1

[9] = tested on: EGFR vIII Ba/F3; assay: CellTiter-Glo cell viability, EGFR vIII Ba/F3; assay type: cell-based; details: Mus musculus, BaF3, 72 h, read-out: EGFR vIII Ba/F3 CTG IC50 /
Experimental: as §1

Chain of EGFR wt (P00533 25-1210): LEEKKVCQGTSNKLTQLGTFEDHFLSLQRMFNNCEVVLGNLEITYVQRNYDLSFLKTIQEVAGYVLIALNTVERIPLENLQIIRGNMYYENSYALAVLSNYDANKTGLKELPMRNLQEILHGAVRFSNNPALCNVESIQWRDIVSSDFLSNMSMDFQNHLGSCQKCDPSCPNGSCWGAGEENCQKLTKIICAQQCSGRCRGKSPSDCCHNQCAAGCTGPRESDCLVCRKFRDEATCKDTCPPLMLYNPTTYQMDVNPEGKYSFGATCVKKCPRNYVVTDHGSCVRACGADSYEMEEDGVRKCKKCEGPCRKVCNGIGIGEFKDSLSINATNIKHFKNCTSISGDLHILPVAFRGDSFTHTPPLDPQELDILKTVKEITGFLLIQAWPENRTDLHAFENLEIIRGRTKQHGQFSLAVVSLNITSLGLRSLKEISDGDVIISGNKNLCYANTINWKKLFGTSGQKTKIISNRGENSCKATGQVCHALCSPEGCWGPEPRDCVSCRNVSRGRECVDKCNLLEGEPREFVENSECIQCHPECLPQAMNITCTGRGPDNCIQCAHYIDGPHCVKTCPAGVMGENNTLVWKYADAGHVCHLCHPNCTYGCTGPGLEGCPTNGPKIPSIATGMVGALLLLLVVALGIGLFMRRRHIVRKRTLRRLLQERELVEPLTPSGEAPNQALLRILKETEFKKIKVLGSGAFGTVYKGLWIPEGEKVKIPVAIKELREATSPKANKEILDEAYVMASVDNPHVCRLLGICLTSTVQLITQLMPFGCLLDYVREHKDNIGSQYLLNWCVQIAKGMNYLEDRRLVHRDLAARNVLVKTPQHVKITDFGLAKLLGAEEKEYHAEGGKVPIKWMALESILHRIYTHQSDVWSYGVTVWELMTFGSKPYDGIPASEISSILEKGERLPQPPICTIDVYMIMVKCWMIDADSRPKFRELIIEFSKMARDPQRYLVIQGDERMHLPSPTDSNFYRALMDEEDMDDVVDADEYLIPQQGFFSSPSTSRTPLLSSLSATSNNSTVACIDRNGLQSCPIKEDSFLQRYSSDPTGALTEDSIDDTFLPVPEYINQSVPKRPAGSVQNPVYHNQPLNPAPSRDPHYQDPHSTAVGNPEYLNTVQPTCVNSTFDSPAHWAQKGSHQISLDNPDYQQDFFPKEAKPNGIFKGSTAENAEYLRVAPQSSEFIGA
Chain of EGFR T790M L858R (P00533 25-1210 T790M/L858R): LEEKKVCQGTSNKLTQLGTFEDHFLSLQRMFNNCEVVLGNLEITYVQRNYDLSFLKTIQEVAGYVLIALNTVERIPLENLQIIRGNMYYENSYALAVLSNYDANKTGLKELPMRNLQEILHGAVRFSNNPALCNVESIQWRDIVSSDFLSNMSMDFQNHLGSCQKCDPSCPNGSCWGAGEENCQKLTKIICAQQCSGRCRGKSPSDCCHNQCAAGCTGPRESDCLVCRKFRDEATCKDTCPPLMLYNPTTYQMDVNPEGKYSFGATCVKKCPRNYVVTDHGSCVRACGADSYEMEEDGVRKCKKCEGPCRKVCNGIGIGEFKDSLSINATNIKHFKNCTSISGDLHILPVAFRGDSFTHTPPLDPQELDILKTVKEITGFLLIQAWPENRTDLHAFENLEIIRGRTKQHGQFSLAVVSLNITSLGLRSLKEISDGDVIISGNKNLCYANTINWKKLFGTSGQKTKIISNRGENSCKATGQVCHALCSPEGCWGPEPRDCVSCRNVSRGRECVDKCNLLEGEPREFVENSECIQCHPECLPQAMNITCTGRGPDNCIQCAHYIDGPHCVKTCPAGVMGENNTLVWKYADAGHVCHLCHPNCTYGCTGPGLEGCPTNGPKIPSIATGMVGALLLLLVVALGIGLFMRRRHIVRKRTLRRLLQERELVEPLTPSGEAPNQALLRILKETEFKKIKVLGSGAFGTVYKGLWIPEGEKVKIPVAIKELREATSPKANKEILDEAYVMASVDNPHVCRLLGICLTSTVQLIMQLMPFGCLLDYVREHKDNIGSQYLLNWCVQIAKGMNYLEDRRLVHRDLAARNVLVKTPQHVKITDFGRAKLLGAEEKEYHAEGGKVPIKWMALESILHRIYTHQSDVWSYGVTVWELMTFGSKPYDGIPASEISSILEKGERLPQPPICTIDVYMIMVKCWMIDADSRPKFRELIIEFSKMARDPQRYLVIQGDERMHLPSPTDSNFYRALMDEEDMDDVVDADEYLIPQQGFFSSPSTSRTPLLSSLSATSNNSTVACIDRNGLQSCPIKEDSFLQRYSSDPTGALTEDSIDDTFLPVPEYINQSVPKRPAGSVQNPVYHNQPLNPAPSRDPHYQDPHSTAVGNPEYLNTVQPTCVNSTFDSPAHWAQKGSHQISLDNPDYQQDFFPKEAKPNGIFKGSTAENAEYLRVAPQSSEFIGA
T1 sequence (P04626 with tags, fused parts or gaps INS775YVMA): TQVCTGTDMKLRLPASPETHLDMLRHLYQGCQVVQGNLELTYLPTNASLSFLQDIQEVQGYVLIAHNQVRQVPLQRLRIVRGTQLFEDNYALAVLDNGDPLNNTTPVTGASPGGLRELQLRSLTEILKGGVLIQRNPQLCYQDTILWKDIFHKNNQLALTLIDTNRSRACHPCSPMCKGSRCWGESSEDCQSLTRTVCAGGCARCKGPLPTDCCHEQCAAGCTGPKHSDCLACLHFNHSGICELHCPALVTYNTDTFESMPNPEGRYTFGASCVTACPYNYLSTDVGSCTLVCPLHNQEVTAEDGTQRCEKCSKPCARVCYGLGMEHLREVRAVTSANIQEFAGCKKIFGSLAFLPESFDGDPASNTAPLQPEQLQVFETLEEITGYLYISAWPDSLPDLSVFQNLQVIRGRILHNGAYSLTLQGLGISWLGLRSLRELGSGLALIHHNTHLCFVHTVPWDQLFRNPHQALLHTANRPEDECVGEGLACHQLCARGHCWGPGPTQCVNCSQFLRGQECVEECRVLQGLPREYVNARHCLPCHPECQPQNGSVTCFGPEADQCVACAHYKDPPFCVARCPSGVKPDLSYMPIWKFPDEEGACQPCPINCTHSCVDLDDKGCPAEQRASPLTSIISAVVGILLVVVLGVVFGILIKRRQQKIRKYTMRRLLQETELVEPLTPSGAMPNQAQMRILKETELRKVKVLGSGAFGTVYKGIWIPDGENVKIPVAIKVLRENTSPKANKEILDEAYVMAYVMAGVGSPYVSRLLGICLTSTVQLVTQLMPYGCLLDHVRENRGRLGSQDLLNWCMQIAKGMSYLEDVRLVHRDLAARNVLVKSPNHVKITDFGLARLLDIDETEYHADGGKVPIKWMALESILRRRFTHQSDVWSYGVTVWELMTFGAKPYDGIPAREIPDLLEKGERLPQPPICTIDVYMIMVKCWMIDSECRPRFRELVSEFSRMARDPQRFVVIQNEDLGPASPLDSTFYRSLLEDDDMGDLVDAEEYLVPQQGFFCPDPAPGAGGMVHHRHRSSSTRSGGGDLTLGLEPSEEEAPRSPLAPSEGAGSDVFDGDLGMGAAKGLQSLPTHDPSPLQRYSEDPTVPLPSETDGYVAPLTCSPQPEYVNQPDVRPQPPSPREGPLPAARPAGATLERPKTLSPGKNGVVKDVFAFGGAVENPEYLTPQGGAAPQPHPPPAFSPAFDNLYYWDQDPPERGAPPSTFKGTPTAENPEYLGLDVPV

pIC50 [1] | pIC50 [2] | pIC50 [3] | pIC50 [5] | pIC50 [6] | pIC50 [7] | pIC50 [8] | pIC50 [9] | SMILES | pIC50 [4]
≥ 7.30 | 6.30 to 7.00 | 6.30 to 7.00 | ≥ 7.30 | ≥ 7.30 | 6.00 to 6.30 | 5.00 to 6.00 | 6.30 to 7.00 | C=CC(=O)Nc1cc(-c2c(-c3cnn(CCOC)c3)[nH]c3ncc(C(=O)OC(C)C)c(C)c23)ccc1C [Example 11, isopropyl 3-(3-acrylamido-4-methylphenyl)-2-(1-(2-methoxyethyl)-1 H-pyrazol-4-yl)-4-methyl-1 H-pyrrolo[2,3-b]pyridine-5-carboxylate] | 6.30 to 7.00
≥ 7.30 | 7.00 to 7.30 | 6.30 to 7.00 | ≥ 7.30 | ≥ 7.30 | 6.30 to 7.00 | 5.00 to 6.00 | ≥ 7.30 | C=CC(=O)Nc1cc(-c2c(-c3cnn(C)c3)[nH]c3ncc(OCC)cc23)cc(F)c1C [Example 3, N-(5-(5-ethoxy-2-(1-methyl-1H-pyrazol-4-yl)-1H-pyrrolo[2,3-b]pyridin-3-yl)-3-fluoro-2-methylphenyl)acrylamide 2,2,2-trifluoroacetate] | ≥ 7.30
6.30 to 7.00 | ≥ 7.30 | 6.30 to 7.00 | 7.00 to 7.30 | ≥ 7.30 | 6.30 to 7.00 | 5.00 to 6.00 | 6.30 to 7.00 | C=CC(=O)Nc1cc(-c2c(-c3cnn(C(C)C)c3)[nH]c3ncc(C(=O)OC(C)C)c(C)c23)ccc1C [Example 13, isopropyl 3-(3-acrylamido-4-methylphenyl)-2-(1-isopropyl-1 H-pyrazol-4-yl)-4-methyl-1H-pyrrolo[2,3-b]pyridine-5-carboxylate] | 6.30 to 7.00
≥ 7.30 | ≥ 7.30 | 6.30 to 7.00 | ≥ 7.30 | ≥ 7.30 | 6.30 to 7.00 | 5.00 to 6.00 | 6.30 to 7.00 | C=CC(=O)Nc1cc(-c2c(-c3cnn(CC)c3)[nH]c3ncc(C(=O)OC(C)C)c(C)c23)ccc1C [Example 8, isopropyl 3-(3-acrylamido-4-methylphenyl)-2-(1-ethyl-1 H-pyrazol-4-yl)-4-methyl-1 H-pyrrolo[2,3-b]pyridine-5-carboxylate] | 6.30 to 7.00
6.00 to 6.30 | 6.30 to 7.00 | 6.30 to 7.00 | 6.30 to 7.00 | ≥ 7.30 | 6.00 to 6.30 | 5.00 to 6.00 | 6.30 to 7.00 | C=CC(=O)Nc1cc(-c2c(-c3cnn(C4CCC4)c3)[nH]c3ncc(C(=O)OC(C)C)c(C)c23)ccc1C [Example 16, isopropyl 3-(3-acrylamido-4-methylphenyl)-2-(1-cyclobutyl-1 H-pyrazol-4-yl)-4-methyl-1H-pyrrolo[2,3-b]pyridine-5-carboxylate] | 6.00 to 6.30
6.30 to 7.00 | 7.00 to 7.30 | 6.30 to 7.00 | 7.00 to 7.30 | ≥ 7.30 | 6.30 to 7.00 | 5.00 to 6.00 | 6.30 to 7.00 | C=CC(=O)Nc1cc(-c2c(-c3cnn(CCC)c3)[nH]c3ncc(C(=O)OC(C)C)c(C)c23)ccc1C [Example 14, isopropyl 3-(3-acrylamido-4-methylphenyl)-4-methyl-2-(1-propyl-1 H-pyrazol-4-yl)-1H-pyrrolo[2,3-b]pyridine-5-carboxylate] | 6.30 to 7.00
7.00 to 7.30 | 7.00 to 7.30 | 6.30 to 7.00 | 7.00 to 7.30 | ≥ 7.30 | 6.00 to 6.30 | 5.00 to 6.00 | 6.30 to 7.00 | C=CC(=O)Nc1cc(-c2c(-c3cnn(C4CC4)c3)[nH]c3ncc(C(=O)OC(C)C)c(C)c23)ccc1C [Example 10, isopropyl 3-(3-acrylamido-4-methylphenyl)-2-(1-cyclopropyl-1 H-pyrazol-4-yl)-4-methyl-1 H-pyrrolo[2,3-b]pyridine-5-carboxylate] | 6.30 to 7.00
≥ 7.30 | 6.30 to 7.00 | 6.30 to 7.00 | ≥ 7.30 | ≥ 7.30 | 6.30 to 7.00 | 5.00 to 6.00 | ≥ 7.30 | C=CC(=O)Nc1cc(-c2c(-c3cnn(C)c3)[nH]c3ncc(C(=O)OC(C)C)cc23)cc(F)c1C [Example 2, Isopropyl 3-(3-acrylamido-5-fluoro-4-methylphenyl)-2-(1-methyl-1H-pyrazol-4-yl)-1H-pyrrolo[2,3-b]pyridine-5-carboxylate 2,2,2-trifluoroacetate] | 6.30 to 7.00
7.00 to 7.30 | 7.00 to 7.30 | 6.30 to 7.00 | ≥ 7.30 | ≥ 7.30 | 6.30 to 7.00 | 5.00 to 6.00 | 6.30 to 7.00 | C=CC(=O)Nc1cc(-c2c(-c3cnn(CC4CC4)c3)[nH]c3ncc(C(=O)OC(C)C)c(C)c23)ccc1C [Example 21, isopropyl 3-(3-acrylamido-4-methylphenyl)-2-(1-(cyclopropylmethyl)-1 H-pyrazol-4-yl)-4-methyl-1 H-pyrrolo[2,3-b]pyridine-5-carboxylate] | 6.30 to 7.00
7.00 to 7.30 | 6.30 to 7.00 | 6.00 to 6.30 | ≥ 7.30 | ≥ 7.30 | 5.00 to 6.00 | 5.00 to 6.00 | 6.30 to 7.00 | C=CC(=O)Nc1cc(-c2c(-c3cn[nH]c3)[nH]c3ncc(C(=O)OC(C)C)c(C)c23)ccc1C [Example 20, isopropyl 3-(3-acrylamido-4-methylphenyl)-4-methyl-2-(1 H-pyrazol-4-yl)-1 H-pyrrolo[2,3-b]pyridine-5-carboxylate] | 6.00 to 6.30
≥ 7.30 | 6.30 to 7.00 | 6.30 to 7.00 | ≥ 7.30 | ≥ 7.30 | 6.00 to 6.30 | 5.00 to 6.00 | 6.30 to 7.00 | C=CC(=O)Nc1cc(-c2c(-c3cnn(CCN4CCOCC4)c3)[nH]c3ncc(C(=O)OC(C)C)c(C)c23)ccc1C [Example 17, isopropyl 3-(3-acrylamido-4-methylphenyl)-4-methyl-2-(1-(2-morpholinoethyl)-1 H-pyrazol-4-yl)-1 H-pyrrolo[2,3-b]pyridine-5-carboxylate] | 6.30 to 7.00
≥ 7.30 | ≥ 7.30 | 6.30 to 7.00 | ≥ 7.30 | ≥ 7.30 | 6.30 to 7.00 | 5.00 to 6.00 | 6.30 to 7.00 | C=CC(=O)Nc1cc(-c2c(-c3cnn(C4COC4)c3)[nH]c3ncc(C(=O)OC(C)C)c(C)c23)ccc1C [Example 19, isopropyl 3-(3-acrylamido-4-methylphenyl)-4-methyl-2-(1-(oxetan-3-yl)-1 H-pyrazol-4-yl)-1 H-pyrrolo[2,3-b]pyridine-5-carboxylate] | 6.30 to 7.00
6.00 to 6.30 | 6.30 to 7.00 | 6.00 to 6.30 | 6.30 to 7.00 | ≥ 7.30 | 6.00 to 6.30 | 5.00 to 6.00 | 6.30 to 7.00 | C=CC(=O)Nc1cc(-c2c(-c3cnn(Cc4ccccc4)c3)[nH]c3ncc(C(=O)OC(C)C)c(C)c23)ccc1C [Example 9, isopropyl 3-(3-acrylamido-4-methylphenyl)-2-(1-benzyl-1 H-pyrazol-4-yl)-4-methyl-1 H-pyrrolo[2,3-b]pyridine-5-carboxylate] | 6.00 to 6.30
